{"source": "patent US11071727B2", "about": "“Therapeutic targeting of proteolytic cleavage of the mixed lineage leukemia gene product (MLL1) by taspase1 using kinase inhibitors” (Northwestern University, priority 2018, dated 2021)", "key": {"[1]": {"system": "MOLM13 cells", "test": "MOLM13 human leukemia xenograft mouse model", "format": "in vivo", "experimental": "FIG. 7. CKII inhibition delays the leukemia progression and improves survival of MLL-AF9 mice and MOLM13 human leukemia mice. (A) Timeline of the MLL-AF9 leukemia mouse model and CKII inhibitor treatment. Drug treatments were started at day 10 after transplantation. (B) Kaplan-Meier survival curves of secondary transplanted C57BL/6 mice after vehicle and CX-4945 treatment at day 10. Vehicle or CX-4945 (50 mg/kg or 75 mg/kg) were administered twice daily by oral gavage for a total of twenty treatments. Leukemia was confirmed at the endpoint for each transplant mouse. The number (n) indicates the number of mice in each group. The p values were calculated using the log rank test. (C) Timeline of the MOLM13 human leukemia xenograft mice. Drug treatments were started at day 5 after transplantation. (D) Kaplan-Meier survival curves of NSGS mice after vehicle and CX-4945 treatment. Vehicle or CX-4945 (50 mg/kg) were administered twice daily by oral gavage for a total of twenty treatments. Leukemia was confirmed at the endpoint for each transplant mouse by flow cytometry, H&E staining and histology analysis. […] The p value was calculated using the log rank test. […]\nMLL Murine Xenograft Transplantation and Treatment. […] Mice were monitored for illness including signs of lethargy, ruffled coat, and/or hind limb paralysis at which time mice were sacrificed for analysis. […]"}, "[2]": {"system": "MLL1 chromatin occupancy", "test": "ChIP-seq of MLL1 occupancy in 293T cells", "format": "cell-based, human", "conditions": "relative to DMSO control", "experimental": "FIG. 6. CKII inhibition increases genome-wide MLL occupancy and excludes SEC recruitment in MLL leukemia cells. (A) and (B) MLL1C occupancy in CX-4945 or TTP22 treated cells were shown relative to DMSO control. […] (C) Track examples of the MLL1 occupancy at the promoter regions of ELF2 and C6orf211. (D) CX-4945 inhibition of leukemia cell proliferation. Multiple MLL leukemia (orange lines) and non-MLL leukemia (blue lines) were cultured with different doses of CX-4945 for 3 days. Cell number was determined by cell counter and normalized to DMSO control. (E) SEM cells were treated with 0, 5 or 10 μM of CX-4945 for 30 hours and western blot was performed to determine the MLL1 full-length protein levels and MLL-AF4 fusion protein levels. (F) MLL-AFF1, AFF4 and ELL2 occupancies were decreased by CX-4945 treatment in SEM cells.\nChIP-seq Analysis. 5×10^7 cells were used for each ChIP assay, as performed as previously described (Chen et al. 2015). Peaks were called with MACS v1.4.2 (Zhang et al. 2008) using default parameters and were annotated by the HOMER software (Heinz et al. 2010). Metaplots were generated using ngsplot (Shen et al. 2014). […] Differential occupancy of MLL1 was evaluated by edgeR, and peaks with Benjamini-Hochburg adjusted p-values less than 0.05 were considered to be differentially occupied. […]"}}, "data": [{"smiles": "O=C(O)c1ccc2c(c1)nc(Nc1cccc(Cl)c1)c1ccncc12", "note": "[CX-4945, 5-(3-chlorophenylamino)benzo[c][2,6]naphthyridine-8-carboxylic acid]", "values": [{"measurement": "weight of the mice", "setting": "[1]; MOLM13 human leukemia xenograft mouse model, compared with vehicle control group", "result": "did not affect the weight of the mice"}, {"measurement": "leukemia free survival", "setting": "[1]; NSGS mice, 50 mg/kg twice daily by oral gavage for ten days, from day 5", "result": "significantly lengthened"}, {"measurement": "MLL1 occupancy (genome-wide)", "setting": "[2]", "result": "global increase of MLL1 occupancy"}]}]}
